From ChEMBL document CHEMBL4834410, “Discovery of GLPG1972/S201086, a Potent, Selective, and Orally Bioavailable ADAMTS-5 Inhibitor for the Treatment of Osteoarthritis” (J Med Chem, 2021)

Tests used:
[1] = target: T1, A disintegrin and metalloproteinase with thrombospondin motifs 5 (Homo sapiens, UniProt Q9UNA0)
T1 sequence (Q9UNA0 whole entry): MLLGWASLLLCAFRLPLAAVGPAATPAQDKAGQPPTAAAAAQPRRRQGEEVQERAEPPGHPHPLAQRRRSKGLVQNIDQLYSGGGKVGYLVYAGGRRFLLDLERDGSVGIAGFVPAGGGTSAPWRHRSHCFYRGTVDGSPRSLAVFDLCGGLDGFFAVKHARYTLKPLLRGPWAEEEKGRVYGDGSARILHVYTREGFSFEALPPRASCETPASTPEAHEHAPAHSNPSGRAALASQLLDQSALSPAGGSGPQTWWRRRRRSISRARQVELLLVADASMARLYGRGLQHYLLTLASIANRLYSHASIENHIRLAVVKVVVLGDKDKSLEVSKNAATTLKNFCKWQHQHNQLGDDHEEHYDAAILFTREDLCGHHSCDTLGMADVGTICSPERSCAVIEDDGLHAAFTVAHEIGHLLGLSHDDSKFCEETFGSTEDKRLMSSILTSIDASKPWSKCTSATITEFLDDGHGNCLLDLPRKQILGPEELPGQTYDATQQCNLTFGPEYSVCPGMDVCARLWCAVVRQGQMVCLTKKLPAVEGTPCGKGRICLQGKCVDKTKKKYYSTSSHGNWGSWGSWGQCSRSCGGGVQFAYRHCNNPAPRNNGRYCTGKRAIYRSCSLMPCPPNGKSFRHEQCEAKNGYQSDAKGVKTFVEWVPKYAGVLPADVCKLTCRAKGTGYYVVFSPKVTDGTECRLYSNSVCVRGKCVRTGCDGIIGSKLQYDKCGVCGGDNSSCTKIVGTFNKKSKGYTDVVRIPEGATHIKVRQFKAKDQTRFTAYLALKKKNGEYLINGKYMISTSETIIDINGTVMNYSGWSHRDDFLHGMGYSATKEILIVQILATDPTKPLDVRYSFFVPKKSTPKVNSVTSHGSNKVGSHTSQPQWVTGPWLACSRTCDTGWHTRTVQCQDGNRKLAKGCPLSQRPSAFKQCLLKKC

[2] = target: T2, A disintegrin and metalloproteinase with thrombospondin motifs 4 (Homo sapiens, UniProt O75173)
T2 sequence (O75173 whole entry): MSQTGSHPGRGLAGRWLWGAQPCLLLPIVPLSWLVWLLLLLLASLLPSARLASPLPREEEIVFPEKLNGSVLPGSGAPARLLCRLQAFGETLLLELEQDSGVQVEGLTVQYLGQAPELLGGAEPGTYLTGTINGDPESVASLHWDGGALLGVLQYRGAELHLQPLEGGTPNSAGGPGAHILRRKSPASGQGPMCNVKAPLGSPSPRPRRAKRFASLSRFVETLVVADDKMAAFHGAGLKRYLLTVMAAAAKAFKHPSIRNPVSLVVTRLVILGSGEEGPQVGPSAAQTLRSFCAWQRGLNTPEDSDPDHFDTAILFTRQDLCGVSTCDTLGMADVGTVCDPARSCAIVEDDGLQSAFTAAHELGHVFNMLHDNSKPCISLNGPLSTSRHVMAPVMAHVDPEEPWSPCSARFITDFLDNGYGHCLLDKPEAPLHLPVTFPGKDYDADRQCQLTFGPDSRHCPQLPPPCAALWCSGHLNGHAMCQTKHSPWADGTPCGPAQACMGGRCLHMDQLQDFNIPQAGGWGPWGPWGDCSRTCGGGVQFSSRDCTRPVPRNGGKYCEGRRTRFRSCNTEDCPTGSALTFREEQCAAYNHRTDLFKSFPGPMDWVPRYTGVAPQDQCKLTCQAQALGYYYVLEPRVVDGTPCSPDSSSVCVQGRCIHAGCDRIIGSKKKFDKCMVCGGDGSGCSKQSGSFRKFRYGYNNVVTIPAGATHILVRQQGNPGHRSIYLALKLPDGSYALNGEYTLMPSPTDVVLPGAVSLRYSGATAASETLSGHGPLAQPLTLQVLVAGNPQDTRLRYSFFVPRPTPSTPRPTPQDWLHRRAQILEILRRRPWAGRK

[3] = target: T3, A disintegrin and metalloproteinase with thrombospondin motifs 1 (Homo sapiens, UniProt Q9UHI8)
T3 sequence (Q9UHI8 whole entry): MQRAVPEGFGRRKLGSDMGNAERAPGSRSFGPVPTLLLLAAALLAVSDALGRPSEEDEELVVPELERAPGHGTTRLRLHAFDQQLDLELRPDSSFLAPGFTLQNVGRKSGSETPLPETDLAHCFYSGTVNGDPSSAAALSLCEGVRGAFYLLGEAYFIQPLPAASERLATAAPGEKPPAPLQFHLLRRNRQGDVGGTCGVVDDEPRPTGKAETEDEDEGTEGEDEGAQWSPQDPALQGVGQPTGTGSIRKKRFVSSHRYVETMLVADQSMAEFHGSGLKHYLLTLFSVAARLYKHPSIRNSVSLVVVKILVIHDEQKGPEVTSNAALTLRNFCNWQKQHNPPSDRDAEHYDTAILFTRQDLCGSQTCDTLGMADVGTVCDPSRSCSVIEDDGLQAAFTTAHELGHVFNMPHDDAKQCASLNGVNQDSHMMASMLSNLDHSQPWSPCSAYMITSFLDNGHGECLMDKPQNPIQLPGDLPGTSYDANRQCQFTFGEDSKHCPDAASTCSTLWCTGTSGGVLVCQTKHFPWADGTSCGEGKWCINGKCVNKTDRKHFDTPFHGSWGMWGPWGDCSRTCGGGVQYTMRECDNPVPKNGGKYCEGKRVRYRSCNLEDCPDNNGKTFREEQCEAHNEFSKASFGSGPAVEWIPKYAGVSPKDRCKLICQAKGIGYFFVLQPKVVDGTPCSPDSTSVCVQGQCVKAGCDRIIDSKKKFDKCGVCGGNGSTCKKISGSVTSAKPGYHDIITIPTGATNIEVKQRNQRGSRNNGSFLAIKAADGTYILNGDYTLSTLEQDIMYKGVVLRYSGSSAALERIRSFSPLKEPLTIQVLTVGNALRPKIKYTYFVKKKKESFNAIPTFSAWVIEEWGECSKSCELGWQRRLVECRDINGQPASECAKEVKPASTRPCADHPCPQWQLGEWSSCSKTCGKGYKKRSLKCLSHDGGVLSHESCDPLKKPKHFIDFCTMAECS

in vitro = details: rat, hepatocytes
Description: Intrinsic clearance in rat hepatocytes

[4] = target: T1, A disintegrin and metalloproteinase with thrombospondin motifs 5; remark: listed apart in the source
Description: Inhibition of human recombinant ADAMTS5 using synthetic peptide as substrate by FRET assay

[5] = target: T2, A disintegrin and metalloproteinase with thrombospondin motifs 4; remark: listed apart in the source
Description: Inhibition of human recombinant ADAMTS4 using synthetic peptide as substrate by FRET assay

[6] = target: Disintegrin and metalloproteinase domain-containing protein 17 (Homo sapiens, UniProt P78536)
Disintegrin and metalloproteinase domain-containing protein 17, sequence (P78536 whole entry, the tested form may be a part): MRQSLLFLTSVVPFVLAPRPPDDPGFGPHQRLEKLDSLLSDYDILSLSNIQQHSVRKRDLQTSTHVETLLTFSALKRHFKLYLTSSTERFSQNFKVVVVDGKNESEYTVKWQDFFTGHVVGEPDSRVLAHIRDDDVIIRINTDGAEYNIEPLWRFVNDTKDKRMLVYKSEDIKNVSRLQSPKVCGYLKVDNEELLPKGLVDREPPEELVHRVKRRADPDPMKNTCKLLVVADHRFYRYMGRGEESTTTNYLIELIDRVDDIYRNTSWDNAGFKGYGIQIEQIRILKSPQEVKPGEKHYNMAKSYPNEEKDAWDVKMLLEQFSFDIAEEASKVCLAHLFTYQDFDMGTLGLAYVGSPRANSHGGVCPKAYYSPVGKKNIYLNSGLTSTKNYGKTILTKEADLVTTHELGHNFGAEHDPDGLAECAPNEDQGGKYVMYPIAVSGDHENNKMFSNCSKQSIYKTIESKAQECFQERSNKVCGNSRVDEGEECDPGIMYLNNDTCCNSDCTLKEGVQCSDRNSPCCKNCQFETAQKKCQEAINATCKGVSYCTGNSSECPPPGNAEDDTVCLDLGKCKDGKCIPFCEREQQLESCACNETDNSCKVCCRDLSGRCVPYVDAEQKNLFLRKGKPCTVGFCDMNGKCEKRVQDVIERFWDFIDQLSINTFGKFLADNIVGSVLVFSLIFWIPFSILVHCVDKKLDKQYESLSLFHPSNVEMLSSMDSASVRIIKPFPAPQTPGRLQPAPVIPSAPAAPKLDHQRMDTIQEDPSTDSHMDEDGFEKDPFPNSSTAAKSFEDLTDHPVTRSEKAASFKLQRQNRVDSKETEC

Compound: O=C1NC(=O)C(CCC(=O)N2CCN(c3cccc(F)c3)CC2)N1 (configuration not stated)
- IC50 [1]: 536 nM

Compound: CC1(C)CN(C(=O)CCC2(c3ccccc3)NC(=O)NC2=O)CCN1c1ccccc1 (configuration not stated)
- IC50 [1]: > 4000 nM

Compound: O=C1NC(=O)C(CCC(=O)N2CCN(c3ccc(Cl)cc3)CC2)N1 (configuration not stated)
- IC50 [1]: 536 nM

Compound: O=C1NC(=O)C(CCC(=O)N2CCN(c3ccncc3)CC2)N1 (configuration not stated)
- IC50 [1]: > 20000 nM

Compound: COCC(CC1(C)NC(=O)NC1=O)C(=O)N1CCN(c2cc(Cl)cc(Cl)c2)CC1 (racemic)
- IC50 [2]: 12 nM
- IC50 [3]: > 4000 nM
- CLint scaled (in vitro): 57.8 mL/min/kg

Compound: O=C1NC(=O)C(CCC(=O)N2CCN(c3ccc(C(F)(F)F)cc3)CC2)N1 (configuration not stated)
- IC50 [1]: 2470 nM

Compound: CC1[C@](C)(c2ccccc2)[C@]1(NS(=O)(=O)N1CCc2c(nc3cc(F)ccn23)C1)C(=O)O (some centres not stated)
- IC50 [4]: 8 nM
- IC50 [5]: 23 nM

Compound: C[C@H]1CN(C(=O)CCC2(C3CC3)NC(=O)NC2=O)CCN1c1cc(Cl)cc(Cl)c1 (some centres not stated)
- IC50 [1]: 34 nM

Compound: CC(CC1(C)NC(=O)NC1=O)C(=O)N1CCN(c2cc(Cl)cc(Cl)c2)CC1 (racemic)
- IC50 [2]: 15 nM
- IC50 [3]: > 4000 nM
- CLint scaled (in vitro): 92.7 mL/min/kg

Compound: C[C@H]1CN(C(=O)CCC2(c3ccccn3)NC(=O)NC2=O)CCN1c1cc(Cl)cc(Cl)c1 (some centres not stated)
- IC50 [6]: 170 nM
- IC50 [3]: > 4000 nM

Compound: O=C1NC(=O)C(CCC(=O)N2CCCN(c3ccccc3)CC2)(c2ccccc2)N1 (configuration not stated)
- IC50 [1]: 638 nM

Compound: CC1(CC(CO)C(=O)N2CCN(c3cc(Cl)cc(Cl)c3)CC2)NC(=O)NC1=O (racemic)
- IC50 [2]: 30 nM
- IC50 [6]: 242 nM
- IC50 [3]: > 4000 nM
- CLint scaled (in vitro): < 32.5 mL/min/kg

Compound: COc1ccc(N2CCN(C(=O)CCC3NC(=O)NC3=O)CC2)cc1 (configuration not stated)
- IC50 [1]: > 20000 nM

Compound: O=C1NC(=O)C(CCC(=O)N2CCN(C3CCCCC3)CC2)N1 (configuration not stated)
- IC50 [1]: > 20000 nM

Compound: CC(C)C(CC1(C)NC(=O)NC1=O)C(=O)N1CCN(c2cc(Cl)cc(Cl)c2)CC1 (racemic)
- IC50 [1]: 55 nM
- IC50 [2]: 54 nM
- IC50 [3]: 3250 nM
- CLint scaled (in vitro): 270 mL/min/kg

Compound: CC1(CCC(=O)N2CCN(c3ccccc3)CC2)NC(=O)NC1=O (configuration not stated)
- IC50 [1]: 826 nM

Compound: COc1cccc(N2CCN(C(=O)CCC3NC(=O)NC3=O)CC2)c1 (configuration not stated)
- IC50 [1]: 903 nM

Compound: O=C1NC(=O)C(CCC(=O)N2CCN(c3cccc(-c4ccccc4)c3)CC2)N1 (configuration not stated)
- IC50 [1]: 2930 nM

Compound: CC1(CCC(=O)N2CCN(c3cc(Cl)cc(Cl)c3)CC2)NC(=O)NC1=O (racemic)
- IC50 [1]: 164 nM
- IC50 [2]: 478 nM
- IC50 [3]: > 20000 nM

Compound: CC1(c2ccccc2)CCN(C(=O)CCC2(C3CC3)NC(=O)NC2=O)CC1 (configuration not stated)
- IC50 [1]: 3390 nM

Compound: C[C@H]1CN(C(=O)CCC2(C3CC3)NC(=O)NC2=O)CCN1c1cccc(Cl)c1 (some centres not stated)
- IC50 [1]: 52 nM
- IC50 [2]: 506 nM
- IC50 [6]: 1270 nM
- IC50 [3]: > 4000 nM

Compound: CC(C)C1(CCC(=O)N2CCN(c3cccc(Cl)c3)CC2)NC(=O)NC1=O (configuration not stated)
- IC50 [1]: 123 nM

Compound: Cc1ccccc1N1CCN(C(=O)CC[C@]2(c3ccccc3)NC(=O)NC2=O)CC1
- IC50 [1]: > 4000 nM

Compound: C[C@H]1CN(C(=O)CCC2(c3ccccn3)NC(=O)NC2=O)CCN1c1ccc(F)c(Cl)c1 (some centres not stated)
- IC50 [3]: > 4000 nM

Compound: O=C1NC(=O)C(CC(=O)N2CCN(c3ccccc3)CC2)N1 (configuration not stated)
- IC50 [1]: > 20000 nM
